Experiments:
Format in all cases: cell-based
[1] = molecular target: Ba/F3 EGFR-D770-N771ins_SVD (Homo sapiens, UniProt P00533, DUP768-770, cells depend on it); assay: Cell proliferation assay (CellTiter-Glo), Ba/F3 EGFR-D770-N771ins_SVD cells; conditions: 72 hrs, CTG assay, * = average of multiple measurements, read-out: Ba/F3 EGFR-D770-N771ins_SVD (nM), IC50 of cell proliferation
Protocol: (§1) I. Cell proliferation assay (i) Reagents and consumables • Fetal bovine serum (FBS) (GBICO, Cat #10099-141); • CellTiter-Glo® Luminescent Cell Viability Assay Kit (Promega, Cat #G7572); • Black transparent flat-bottomed 96-well plate (Corning®, Cat #3603).
(§2) • SpectraMax Multi-Label Microplate Detector MD, 2104-0010A; • CO2 incubator, Thermo Scientific 3100 Series; • Biosafety cabinet, Thermo Scientific, 1300 Series type A2; • Inverted microscope, Olympus, CKX41SF; • Siemens refrigerator KK25E76TI. (iii) Cell lines and culture conditions
(§3) (iv) Experimental procedures 1. Cell culture and seeding: • (1) Cells in the logarithmic growth phase were harvested, and counted using a platelet counter. Cell viability was detected by the trypan blue exclusion assay to ensure that the cell viability was above 90%. • (2) The cell concentration was adjusted to achieve the final density; and 90 μL of the cell suspension was added to the 96-well plate. • (3) The cells were incubated in the 96-well plate overnight at 37° C. in the presence of 5% CO2 with 95% humidity. 2. TO benchmark data: • (1) 10 μL of PBS was added to each well of the TO flat plate containing the cells. • (2) The CTG reagent was thawed, and the cell plate was equilibrated to room temperature for 30 min. • (3) An equal volume of CTG solution was added to each well. • (4) The cells were shaken for 5 min on an orbital shaker for lysis. • (5) The cell plate was left at room temperature for 20 min to stabilize luminescent signals. • (6) The values of TO luminescent signals were read. 3. Compound dilution and addition • (1) According to the compound information table, a corresponding volume of DMSO was added to the corresponding compound powder to prepare a 10 mM stock solution. • (2) Compound solutions diluted at 1000 fold and 3.16 fold were prepared. • (3) The compound solution diluted at 1000 fold was diluted at 100 fold with PBS, to prepare the compound solutions at 10 fold in 9 concentrations, with the maximum concentration of […]; and the compound solution was diluted at 3.16 fold. 10 μL of medicament solution was added to each well of the seeded 96-well plate. Three replicate wells were provided for each concentration of the compound, and the final concentration of DMSO was 0.1%. • (4) Cells were placed in the 96-well plate containing the medicament and subsequently cultured for 72 hrs at 37° C. in the presence of 5% CO2 with 95% humidity, and then, CTG assay was conducted. 4. Reading of luminescent signals • (1) The CTG reagent was thawed, and the cell plate was equilibrated to room temperature for 30 min. • (2) An equal volume of CTG solution was added to each well. • (3) The cells were shaken for 5 min on an orbital shaker for lysis.
(§4) (4) The cell plate was left at room temperature for 20 min to stabilize the luminescent signals. • (5) Luminescent values were read. Data processing
(§5) The data were analyzed using software GraphPad Prism 7.0, and fitted by the nonlinear S-curve regression to obtain a dose-effect curve, based on which the IC50 value (unit: nM) was calculated, with the specific test results shown in Table 1.
(§6) Cell viability (%)=(Lum test medicament-Lum culture medium control)/(Lum cell control-Lum culture medium control)×100%.

[2] = molecular target: Ba/F3 EGFR-V769_D770insASV (Homo sapiens, UniProt P00533, DUP767-769, cells depend on it); assay: Cell proliferation assay (CellTiter-Glo), Ba/F3 EGFR-V769_D770insASV cells; conditions: 72 hrs, CTG assay, * = average of multiple measurements, read-out: Ba/F3 EGFR-V769_D770insASV (nM), IC50 of cell proliferation
Protocol: as §1, §2, §3, §4, §5, §6

A431 (EGFR-WT) = assay: Cell proliferation assay (CellTiter-Glo), A431 cells; conditions: Homo sapiens, A-431, 72 hrs, CTG assay, * = average of multiple measurements
Protocol: as §1, §2, §3, §4, §5, §6

Chain of Ba/F3 EGFR-D770-N771ins_SVD (P00533 with tags, fused parts or gaps DUP768-770): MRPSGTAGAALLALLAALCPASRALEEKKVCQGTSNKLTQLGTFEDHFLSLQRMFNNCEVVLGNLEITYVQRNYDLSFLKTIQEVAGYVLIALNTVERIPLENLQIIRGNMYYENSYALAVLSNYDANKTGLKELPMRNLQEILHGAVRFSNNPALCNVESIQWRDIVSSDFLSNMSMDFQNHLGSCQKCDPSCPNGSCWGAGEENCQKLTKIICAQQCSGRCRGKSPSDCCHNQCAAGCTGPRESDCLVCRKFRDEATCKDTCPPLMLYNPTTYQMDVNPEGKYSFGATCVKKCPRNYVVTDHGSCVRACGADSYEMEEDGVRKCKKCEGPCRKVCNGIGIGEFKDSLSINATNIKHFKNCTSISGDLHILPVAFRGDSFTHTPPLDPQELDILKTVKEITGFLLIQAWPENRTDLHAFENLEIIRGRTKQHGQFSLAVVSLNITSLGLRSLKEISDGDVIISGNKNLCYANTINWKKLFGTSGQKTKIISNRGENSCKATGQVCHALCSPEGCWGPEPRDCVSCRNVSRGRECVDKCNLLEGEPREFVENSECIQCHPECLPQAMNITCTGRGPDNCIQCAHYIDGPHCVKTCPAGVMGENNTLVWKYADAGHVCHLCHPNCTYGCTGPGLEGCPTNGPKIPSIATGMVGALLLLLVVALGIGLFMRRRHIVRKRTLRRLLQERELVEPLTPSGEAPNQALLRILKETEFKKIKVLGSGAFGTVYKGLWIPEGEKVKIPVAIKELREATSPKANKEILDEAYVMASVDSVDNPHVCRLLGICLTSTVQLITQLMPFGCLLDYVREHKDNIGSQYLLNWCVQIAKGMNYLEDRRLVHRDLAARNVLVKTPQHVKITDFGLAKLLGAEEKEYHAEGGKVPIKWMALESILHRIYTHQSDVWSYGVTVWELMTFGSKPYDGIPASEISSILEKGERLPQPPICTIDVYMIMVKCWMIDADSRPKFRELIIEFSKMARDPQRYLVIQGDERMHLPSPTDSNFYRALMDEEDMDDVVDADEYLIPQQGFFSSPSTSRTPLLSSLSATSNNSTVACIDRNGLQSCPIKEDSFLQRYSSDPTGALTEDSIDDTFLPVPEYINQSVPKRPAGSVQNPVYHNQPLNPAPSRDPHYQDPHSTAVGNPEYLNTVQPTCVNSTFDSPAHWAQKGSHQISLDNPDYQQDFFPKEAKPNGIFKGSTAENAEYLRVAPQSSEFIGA
Chain of Ba/F3 EGFR-V769_D770insASV (P00533 with tags, fused parts or gaps DUP767-769): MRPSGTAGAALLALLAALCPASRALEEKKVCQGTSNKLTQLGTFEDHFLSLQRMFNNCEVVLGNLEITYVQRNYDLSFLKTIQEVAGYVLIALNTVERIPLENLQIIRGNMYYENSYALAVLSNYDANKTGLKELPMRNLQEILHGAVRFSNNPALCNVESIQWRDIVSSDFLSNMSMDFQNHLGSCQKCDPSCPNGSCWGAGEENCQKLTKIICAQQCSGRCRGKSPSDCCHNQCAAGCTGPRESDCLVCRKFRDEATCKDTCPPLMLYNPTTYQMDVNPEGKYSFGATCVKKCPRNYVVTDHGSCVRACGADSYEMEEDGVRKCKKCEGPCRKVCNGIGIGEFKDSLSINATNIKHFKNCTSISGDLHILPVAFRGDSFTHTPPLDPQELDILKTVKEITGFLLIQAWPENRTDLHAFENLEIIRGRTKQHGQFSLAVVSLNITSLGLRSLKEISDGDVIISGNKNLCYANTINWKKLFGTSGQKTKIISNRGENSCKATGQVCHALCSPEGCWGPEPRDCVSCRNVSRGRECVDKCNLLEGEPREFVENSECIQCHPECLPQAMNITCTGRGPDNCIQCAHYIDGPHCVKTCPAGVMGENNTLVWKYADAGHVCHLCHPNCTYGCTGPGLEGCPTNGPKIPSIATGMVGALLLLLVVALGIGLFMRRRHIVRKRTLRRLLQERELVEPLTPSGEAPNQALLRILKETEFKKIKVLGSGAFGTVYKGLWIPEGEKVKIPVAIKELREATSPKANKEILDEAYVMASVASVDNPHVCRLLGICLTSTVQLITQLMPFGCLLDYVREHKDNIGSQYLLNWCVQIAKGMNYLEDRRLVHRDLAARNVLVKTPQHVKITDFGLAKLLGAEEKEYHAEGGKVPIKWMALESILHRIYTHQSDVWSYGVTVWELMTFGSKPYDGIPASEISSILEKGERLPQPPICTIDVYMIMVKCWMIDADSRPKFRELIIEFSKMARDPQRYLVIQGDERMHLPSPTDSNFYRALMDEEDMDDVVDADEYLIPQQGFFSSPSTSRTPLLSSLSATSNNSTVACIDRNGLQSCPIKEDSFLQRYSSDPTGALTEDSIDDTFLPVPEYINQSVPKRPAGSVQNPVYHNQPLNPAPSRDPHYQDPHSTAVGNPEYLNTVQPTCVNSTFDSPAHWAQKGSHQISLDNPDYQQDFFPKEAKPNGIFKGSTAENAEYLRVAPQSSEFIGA

Row | GI50 [1] [nM] | GI50 [2] [nM] | IC50 (A431 (EGFR-WT)) [nM] | SMILES
1 | 3.8 | 19 | 80.4 | C=CC(=O)Nc1cc(Nc2nccc(N3CC(C)(C)c4nc(C)c(C)cc43)n2)c(OC)cc1N(C)CCN(C)C [Example 21, N-(2-((2-(dimethylamino)ethyl) (methyl)amino)-4-methoxy-5-((4-(3,3,5,6-tetramethyl-2,3-dihydro-1H-pyrrolo[3,2-b]pyridin-1-yl)pyrimidin-2-yl)amino)phenyl)acrylamide]
2 | 35.8 | 11.7 | 1070 | C=CC(=O)Nc1cc(Nc2nccc(N3CC(C)(C)c4ncccc43)n2)c(OC(F)F)cc1N(C)CCN(C)C [Example 45, N-(4-(difluoromethoxy)-5-((4-(3,3-dimethyl-2,3-dihydro-1H-pyrrolo [3,2-b]pyridin-1-yl)pyrimidin-2-yl)amino)-2-((2-(dimethylamino)ethyl)(methyl)amino)phenyl)acrylamide]
3 | 24.8 | 53.7 | 317 | C=CC(=O)Nc1cc(Nc2nccc(N3CC(C)(C)c4nc(C5CC5)ccc43)n2)c(OC)nc1N(C)CCN(C)C [Example 69, N-(5-((4-(5-cyclopropyl-3,3-dimethyl-2,3-dihydro-1H-pyrrolo [3,2-b]pyridin-1-yl)pyrimidin-2-yl)amino)-2-((2-(dimethylamino)ethyl) (methyl)amino)-6-methoxypyridin-3-yl)acrylamide]
4 | 26.6 | 31.4 | 411 | C=CC(=O)Nc1cc(Nc2nccc(N3CC(C)(C)c4nc(C)ccc43)n2)c(OC)cc1N(C)CCN(C)C [Example 5, N-(2-((2-(dimethylamino)ethyl) (methyl)amino)-4-methoxy-5-((4-(3,3,5-trimethyl-2,3-dihydro-1H-pyrrolo[3,2-b]pyridin-1-yl)pyrimidin-2-yl)amino)phenyl)acrylamide]
5 | 42.1 | 87.4 | 101 | C=CC(=O)Nc1cc(Nc2cc(N3CC(C)(C)c4nc(C)ccc43)ncn2)c(OC)cc1N1CCC[C@@H]1CN(C)C [Example 13, (R)-N-(5-((6-(3,3,5-trimethyl-2,3-dihydro-1H-pyrrolo[3,2-b]pyridin-1-yl)pyrimidin-4-yl)amino)-2-(2-((dimethylamino)methyl)pyrrolidin-1-yl)-4-methoxyphenyl)acrylamide]
6 | 20 | 45.5 | 22.1 | C=CC(=O)Nc1cc(Nc2ncnc(N3CC4(CCCC4)c4nc(C)ccc43)n2)c(OC)cc1N(C)CCN(C)C [Example 29, N-(2-((2-(dimethylamino)ethyl) (methyl)amino)-4-methoxy-5-((4-(5′-methylspiro[cyclopentane-1,3′-pyrrolo[3,2-b]pyridin]-1′(2′H)-yl)-1,3,5-triazin-2-yl)amino)phenyl) acrylamide]
7 | 9.5 | 27.7 | 47.7 | C=CC(=O)Nc1cc(Nc2ncnc(N3CC(C)(C)c4ncc(C)cc43)n2)c(OC)cc1N(C)CCN(C)C [Example 16, N-(2-((2-(dimethylamino)ethyl) (methyl)amino)-4-methoxy-5-((4-(3,3,6-trimethyl-2,3-dihydro-1H-pyrrolo[3,2-b]pyridin-1-yl)-1,3,5-triazin-2-yl)amino)phenyl)acrylamide]
8 | 17.8 | 30.6 | 72.9 | C#Cc1ccc2c(n1)C(C)(C)CN2c1ccnc(Nc2cc(NC(=O)C=C)c(N(C)CCN(C)C)cc2OC)n1 [Example 54, N-(2-((2-(dimethylamino)ethyl)(methyl)amino)-5-((4-(5-ethynyl-3,3-dimethyl-2,3-dihydro-1H-pyrrolo[3,2-b]pyridin-1-yl)pyrimidin-2-yl)amino)-4-methoxyphenyl)acrylamide]
9 | 66.3 | 111 | 841 | C=CC(=O)Nc1cc(Nc2cc(N3CC(C)(C)c4nc(C)ccc43)ccn2)c(OC)cc1N1CCC[C@@H]1CN(C)C [Example 3]
10 | 11.6 | 23.5 | 488 | C=CC(=O)Nc1cc(Nc2nccc(N3CC4(CCCCC4)c4nc(C)ccc43)n2)c(OCC(F)(F)F)nc1N(C)CCN(C)C [Example 42, N-(2-((2-(dimethylamino)ethyl) (methyl)amino)-5-((4-(5′-methyl-spiro[cyclohexane-1,3′-pyrrolo[3,2-b]pyridin]-1′(2′H)-yl)pyrimidin-2-yl)amino)-6-(2,2,2-trifluoroethoxy)pyridin-3-yl)acrylamide]
11 | 23.7 | 9.1 | 66 | C=CC(=O)Nc1cc(Nc2ncnc(N3CC(C)(C)c4nc(C)ccc43)n2)c(OC(C)C)nc1N(C)CCN(C)C [Example 48, N-(2-((2-(dimethylamino)ethyl) (methyl)amino)-6-isopropoxy-5-((4-(3,3,5-trimethyl-2,3-dihydro-1H-pyrrolo[3,2-b]pyridin-1-yl)-1,3,5-triazin-2-yl)amino)pyridin-3-yl) acrylamide]
12 | 25.4 | 44.3 | 850 | C=CC(=O)Nc1cc(Nc2nccc(N3CC(C)(C)c4nc(C)ccc43)n2)c(OCC)cc1N(C)CCN(C)C [Example 24, N-(2-((2-(dimethylamino)ethyl) (methyl)amino)-4-ethoxy-5-((4-(3,3,5-trimethyl-2,3-dihydro-1H-pyrrolo[3,2-b]pyridin-1-yl)pyrimidin-2-yl)amino)phenyl)acrylamide]
13 | 32.7 | 79.7 | 673 | C=CC(=O)Nc1cc(Nc2nccc(N3CC4(CCC4)c4ncccc43)n2)c(OCC(F)(F)F)nc1N(C)CCN(C)C [Example 57, N-(2-((2-(dimethylamino)ethyl) (methyl)amino)-5-((4-(spiro[cyclo-butane-1,3′-pyrrolo[3,2-b]pyridin]-1′(2′H)-yl)pyrimidin-2-yl)amino)-6-(2,2,2-trifluoroethoxy)pyridin-3-yl)acrylamide]
14 | 22.6 | 21.6 | 402 | C=CC(=O)Nc1cc(Nc2nccc(N3CC(C)(C)c4nc(C5CC5)ccc43)n2)c(OC(F)F)cc1N(C)CCN(C)C [Example 46, N-(5-((4-(5-cyclopropyl-3,3-dimethyl-2,3-dihydro-1H-pyrrolo[3,2-b]pyridin-1-yl)pyrimidin-2-yl)amino)-4-(difluoromethoxy)-2-((2-(dimethylamino)ethyl)(methyl)amino)phenyl)acrylamide]
15 | 34.8 | 123 | 620 | C=CC(=O)Nc1cc(Nc2nccc(N3CC(C)(C)c4nc(-n5ccnc5)ccc43)n2)c(OC)cc1N(C)CCN(C)C [Example 51, N-(5-((4-(5-(1H-imidazole-1-yl)-3,3-dimethyl-2,3-dihydro-1H-pyrrolo[3,2-b]pyridin-1-yl)pyrimidin-2-yl)amino)-2-((2-(dimethylamino)ethyl)(methyl)amino)-4-methoxyphenyl)acrylamide]
16 | 39.6 | 116 | 532 | C=CC(=O)Nc1cc(Nc2nccc(N3CC4(CCC4)c4ncccc43)n2)c(OC)cc1N(C)CCN(C)C [Example 63, N-(2-((2-(dimethylamino)ethyl) (methyl)amino)-4-methoxy-5-((4-(spiro[cyclobutane-1,3′-pyrrolo [3,2-b]pyridin]-1′(2′H)-yl)pyrimidin-2-yl)amino)phenyl)acrylamide]
17 | 32.9 | 54.2 | 189 | C=CC(=O)Nc1cc(Nc2nccc(N3CC4(CCC4)c4nc(C)ccc43)n2)c(OC)cc1N(C)CCN(C)C [Example 52, N-(2-((2-(dimethylamino)ethyl) (methyl)amino)-4-methoxy-5-((4-(5′-methylspiro[cyclobutane-1,3′-pyrrolo[3,2-b]pyridin]-1′(2′H)-yl)pyrimidin-2-yl)amino)phenyl) acrylamide]

From patent publication US20240109885A1, “2,3-DIHYDRO-1H-PYRROLO[3,2-B]PYRIDINE DERIVATIVE, PREPARATION METHOD THEREFOR, AND APPLICATION THEREOF” (Abbisko Therapeutics Co., Ltd, priority 2020, published 2024)
